Holding throughout (test): growth of human tumour cells (NCI), 48 h
Experiment [1] deals with HCC-2998 colon.
The test system of experiment [2] is NCI/ADR-RES ovarian.
In experiment [3] the test system is NCI-H226 lung.
For experiment [4], the system named is NCI-H460 lung.
The test system of experiment [5] is RXF 393 renal.
Experiment [6] deals with NCI-H23 lung.
The test system of experiment [7] is UACC-257 melanoma.
Experiment [8] relates to HS 578T breast.

“And” between values parts separate entries of the source, which are not always exact repeats. Equal entries are not always repeated.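 Growth conditions: 96-well plates. Treatment: test compound, 48 hours, 5 concentrations. Analysis: linear interpolation between bracketing concentrations; unreached endpoints set to highest concentration. GI50 marks 50% less growth. TGI: total growth inhibition.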

As for `C=C1C(=O)O[C@H]2C[C@@H]1CCC1(C)OC1CC/C(C)=C/CC[C@H]2C` (stereo partly specified), the GI50 was 18.9 µM in experiment [1]; 18.5 µM in experiment [2]; 18.7 µM in experiment [3]; 17.1 µM in experiment [4]; 21.4 µM in experiment [5]; 19.6 µM in experiment [6]. Further, the GI50 in experiment [7] is 19.2 µM; in experiment [8] it was 24 µM. In addition, the TGI is 33.1 µM in experiment [1]; 35.4 µM in experiment [2]; 39.4 µM in experiment [3]; 33.1 µM in experiment [4]; 43.1 µM in experiment [5]; 37.1 µM in experiment [6]. Also, the figures for the TGI in experiment [7] and in experiment [8] were 37.2 µM and 61 µM, respectively.

As for `CO/C(=N\N=C\c1cccc(C(F)(F)F)c1)c1ccncc1`, the TGI was 22.5 µM in experiment [1]; 27.4 µM in experiment [3]; 48.8 µM in experiment [4]; 33.2 µM in experiment [5]; 42.6 µM in experiment [6]; > 100 µM in experiment [7]. Also, the TGI in experiment [8] is 38.7 µM. Further, in experiment [2], the GI50 is 5.37 µM.

For the compound `COc1ccc(-n2c(C)nc3c(c(C)nn3-c3ccccc3)c2=O)cc1`, the GI50 is 0.191 µM in experiment [1]; 0.0534 µM in experiment [2]; 0.207 µM in experiment [3]; 0.0478 µM in experiment [4]; 0.0609 µM in experiment [5]; 0.218 µM in experiment [6]. Moreover, the GI50 in experiment [7] was 5.82 µM; in experiment [8] it was 0.0528 µM. Moreover, the TGI in experiment [1] was > 100 µM; in experiment [2] it was > 100 µM; in experiment [3], > 100 µM; in experiment [4], > 40 µM; in experiment [5], > 100 µM; in experiment [6] it was > 100 µM. For the same compound, the TGI in experiment [7] is 75.1 µM; in experiment [8] it was > 100 µM.

As to `C[C@@H]1COC(Nc2ccc3ncnc(Nc4ccc(OCc5nccs5)c(Cl)c4)c3c2)=N1`, the GI50 is > 10 µM and 11.9 µM in experiment [1]; 2.6 µM and 2.64 µM in experiment [2]; 4.02 µM and 4.04 µM in experiment [3]; 8.17 µM and 8.76 µM in experiment [4]; > 10 µM and 6.81 µM in experiment [5]; 8.41 µM and 8.45 µM in experiment [6]. For the same compound, the GI50 was > 10 µM and 5.59 µM in experiment [7]; 5.23 µM and 5.24 µM in experiment [8]. The TGI in experiment [1] was > 10 µM and 39.6 µM; in experiment [2] it was > 10 µM and 12 µM; in experiment [3] it was > 10 µM and 18.2 µM; in experiment [4], > 10 µM and 26.5 µM; in experiment [5], > 10 µM and 20.7 µM; in experiment [6], > 10 µM and 37 µM. Also, the TGI was > 10 µM and 25.6 µM in experiment [7]; > 10 µM and 48.9 µM in experiment [8].

For the compound `COc1ccc2c(c1)C(=O)c1c-2n(CCCN2CCOCC2)c(=O)c2cc([N+](=O)[O-])ccc12`, the GI50 in experiment [1], in experiment [2], in experiment [3], in experiment [4], in experiment [5] and in experiment [6] was < 0.01 µM throughout. For the same compound, the GI50 is 0.0504 µM in experiment [7] and 0.719 µM in experiment [8]. Also, the TGI is 0.153 µM in experiment [1]; < 0.0279 µM in experiment [2]; 0.405 µM in experiment [3]; 0.069 µM in experiment [4]; < 0.01 µM in experiment [6]; 3.08 µM in experiment [7]. In experiment [8], this compound returned a TGI of 22.3 µM.

`O=C(NC1(C(=O)O)CC1c1ccccc1)c1ccccc1` (stereo unspecified): the TGI in experiment [1], in experiment [2], in experiment [3], in experiment [4], in experiment [5] and in experiment [6] was > 100 µM each time. For the same compound, the TGI in experiment [7] and in experiment [8] was > 100 µM throughout.

`COc1cc(/C=C2\C(=O)Nc3ccccc32)cc(OC)c1OC`: the GI50 was 12.4 µM in experiment [1]; 11.6 µM in experiment [2]; 26.1 µM in experiment [3]; 11.8 µM in experiment [4]; 2.37 µM in experiment [5]; 17.9 µM in experiment [6]. In addition, the GI50 in experiment [7] was 8.81 µM; in experiment [8] it was 28.7 µM. Also, the TGI is 32.8 µM in experiment [1]; 45.6 µM in experiment [2]; > 100 µM in experiment [3]; > 100 µM in experiment [4]; 10.6 µM in experiment [5]; 68.3 µM in experiment [6]. Further, the results for the TGI in experiment [7] and in experiment [8] were 54 µM and > 100 µM, respectively.

As for `Oc1cc(Cl)ccc1Cc1ccc(Cl)cc1O`, the GI50 in experiment [1] is 14.6 µM; in experiment [2] it was 8.63 µM; in experiment [3], 24.7 µM; in experiment [4], 7 µM; in experiment [5] it was 12.8 µM; in experiment [6], 3.21 µM. Also, the GI50 is 14.7 µM in experiment [7] and 7.2 µM in experiment [8]. The TGI in experiment [1] amounted to 27.7 µM; in experiment [2], 25.4 µM; in experiment [3], 57.8 µM; in experiment [4] it was 19.4 µM; in experiment [5], 28.4 µM; in experiment [6] it was 12.6 µM. The TGI in experiment [7] turned out to be 36.9 µM; in experiment [8] it was 32.8 µM.

As for `CC1(C)N[P+]2(Nc3ccccc3O2)OC1=O` (stereo unspecified), the TGI in experiment [1], in experiment [2], in experiment [3], in experiment [4], in experiment [5] and in experiment [6] was > 100 µM throughout. The TGI in experiment [7] and in experiment [8] was > 100 µM throughout.

With `O=[N+]([O-])/C=C/c1ccc([N+](=O)[O-])cc1`, the GI50 in experiment [1] is 1.75 µM; in experiment [2] it was 8.71 µM; in experiment [3] it was 2.06 µM; in experiment [4], 4.57 µM; in experiment [5], 1.52 µM; in experiment [6], 2.07 µM. For the same compound, the values for the GI50 in experiment [7] and in experiment [8] were 1.88 µM and 2.64 µM, respectively. The TGI in experiment [1] is 3.23 µM; in experiment [2], 73.8 µM; in experiment [3], 5.37 µM; in experiment [4], 22.6 µM; in experiment [5] it was 2.98 µM; in experiment [6] it was 5.2 µM. Further, the TGI in experiment [7] came out at 5.01 µM; in experiment [8] it was 9.87 µM.

As to `COc1ccc(-c2ccccc2)cc1-c1c(Nc2cc(Cl)cc(Cl)c2O)c(=O)c1=O`, the GI50 in experiment [1] is 1.78 µM; in experiment [2], 1.38 µM; in experiment [3], 1.57 µM; in experiment [4], 1.55 µM; in experiment [5], 1.48 µM; in experiment [6], 1.38 µM. For the same compound, the GI50 in experiment [7] was 1.44 µM; in experiment [8] it was 1.25 µM. The TGI in experiment [1], in experiment [2], in experiment [3], in experiment [4], in experiment [5] and in experiment [6] was > 50 µM each time. The TGI in experiment [7] stood at 4.77 µM; in experiment [8], 4.55 µM.

These data come from PubChem BioAssay (NCI).
